The source of these data is ChEMBL document CHEMBL4004849, “Tetrazolylmethyl quinolines: Design, docking studies, synthesis, anticancer and antifungal analyses” (2017).

≈ marks a conversion by molar mass, not a printed value.

Holding throughout (type): functional
For experiment [1], the system named is Candida albicans. The experiment is described as follows: Antifungal activity against Candida albicans at 100 ug/ml by disc diffusion method. The following applies: read-out: IZ. (In agar diffusion tests the substance spreads into inoculated agar from a disc or well.)
Experiment [2] relates to Candida albicans. Briefly: Antifungal activity against Candida albicans after 24 hrs by serial dilution method.
In experiment [3] the test system is Aspergillus fumigatus. The experiment is described as follows: Antifungal activity against Aspergillus fumigatus at 100 ug/ml by disc diffusion method. The following applies: read-out: IZ.
Experiment [4] has as its system Aspergillus fumigatus. Briefly: Antifungal activity against Aspergillus fumigatus after 24 hrs by serial dilution method.

On to `Cc1ccc2nc(Cl)c(Cn3nnc(Cc4ccccc4)n3)cc2c1`, for which the zone of inhibition at 100 µg/mL in the experiment on Candida albicans [1] and in the experiment with Aspergillus fumigatus [3] was 12 mm in each case. Further, the MIC in the experiment on Candida albicans [2] and in the experiment on Aspergillus fumigatus [4] was 25 µg/mL (≈ 71.5 µM) each time.

Take `COc1ccc2nc(Cl)c(Cn3nnc(CSc4ccccc4)n3)cc2c1`: the zone of inhibition at 100 µg/mL in the experiment with Candida albicans [1] was 16 mm; in the experiment with Aspergillus fumigatus [3], 20 mm. Moreover, the values for the MIC against Candida albicans [2] and in the experiment with Aspergillus fumigatus [4] were 25 µg/mL (≈ 62.8 µM) and 10 µg/mL (≈ 25.1 µM), respectively.

Consider `Clc1nc2ccc(Br)cc2cc1Cn1nnc(CSc2ccccc2)n1`, for which the zone of inhibition at 100 µg/mL in the experiment on Candida albicans [1] came to 18 mm; in the experiment on Aspergillus fumigatus [3], 15 mm. Besides, the MIC was 25 µg/mL (≈ 56 µM) with Candida albicans [2] and 5 µg/mL (≈ 11.2 µM) in the experiment on Aspergillus fumigatus [4].

On to `OC(Cn1cncn1)(Cn1cncn1)c1ccc(F)cc1F` [FLUCONAZOLE], for which the zone of inhibition at 100 µg/mL in the experiment on Candida albicans [1] is 24 mm; in the experiment with Aspergillus fumigatus [3], 26 mm. Moreover, the MIC in the experiment on Candida albicans [2] and with Aspergillus fumigatus [4] was 30 µg/mL (≈ 98 µM) throughout.

By MIC is commonly meant the lowest concentration found to suppress growth. Read a low MIC as greater potency.
